According to patent US6787532B2, “Formulation containing anti-inflammatory androstane derivatives” (SmithKline Beecham Corporation, priority 2000, dated 2004):
Converted amounts (≈) assume the structure as drawn. “Also recorded” adds a separate entry of the source. Read-outs that look alike come from different tables or passages of the source.

Experiments:
[1] = Pharmacokinetics after intra-tracheal dry powder dosing in the pig; format: in vivo; settings: for time after dosing up to which quantifiable in plasma / Cmax / AUC(0-inf): pig; for time after dosing up to which quantifiable in plasma: intra-tracheal 1 mg, LLOQ 10 and 20 pg/mL; for Cmax / AUC(0-inf): plasma, 1 mg; for Cmax: inhaled or intranasal; for AUC(0-inf): iv, compound (I) calculated with IV half-life
Protocol: Serial blood samples were taken for up to 8 h following dosing.

[2] = tested on: lung eosinophilia; assay: Ovalbumin sensitised Brown Norway rat eosinophilia model; format: in vivo; settings: single intra-tracheal dose of 30 μg, suspension in saline, 30 min prior to ovalbumin challenge
Protocol: Pharmacological activity in vivo was assessed in an-ovalbumin sensitised Brown Norway rat eosinophilia model. This model is designed to mimic allergen induced lung eosinophilia, a major component of lung inflammation in asthma.

[3] = Pharmacokinetics after intravenous administration in the anaesthetised pig; format: in vivo; settings: intravenous mixture of the two compounds at 0.1 mg/kg
Excerpt: The clearance of these two glucocorticoids is similar is this experimental pig model.

[4] = Pharmacokinetics after intravenous and oral dosing in rats; format: in vivo; settings: male, Wistar Han, plasma, rat; for clearance: IV 0.1 mg/kg
[5] = tested on: thymus involution; assay: Rat model of thymus involution; format: in vivo; settings: 3 daily IT doses of 100 μg
[6] = Solubility in water with surfactants and co-solvating agents; format: physicochemical
Excerpt: As noted above, this improved process permits solutions of higher concentration to be prepared than is possible by conventional techniques.

[7] = biological target: T1, glucocorticoid receptor (Homo sapiens, UniProt P04150); assay: In vitro functional glucocorticoid assays, metabolite versus parent; format: cell-based
T1 sequence (P04150 1-777): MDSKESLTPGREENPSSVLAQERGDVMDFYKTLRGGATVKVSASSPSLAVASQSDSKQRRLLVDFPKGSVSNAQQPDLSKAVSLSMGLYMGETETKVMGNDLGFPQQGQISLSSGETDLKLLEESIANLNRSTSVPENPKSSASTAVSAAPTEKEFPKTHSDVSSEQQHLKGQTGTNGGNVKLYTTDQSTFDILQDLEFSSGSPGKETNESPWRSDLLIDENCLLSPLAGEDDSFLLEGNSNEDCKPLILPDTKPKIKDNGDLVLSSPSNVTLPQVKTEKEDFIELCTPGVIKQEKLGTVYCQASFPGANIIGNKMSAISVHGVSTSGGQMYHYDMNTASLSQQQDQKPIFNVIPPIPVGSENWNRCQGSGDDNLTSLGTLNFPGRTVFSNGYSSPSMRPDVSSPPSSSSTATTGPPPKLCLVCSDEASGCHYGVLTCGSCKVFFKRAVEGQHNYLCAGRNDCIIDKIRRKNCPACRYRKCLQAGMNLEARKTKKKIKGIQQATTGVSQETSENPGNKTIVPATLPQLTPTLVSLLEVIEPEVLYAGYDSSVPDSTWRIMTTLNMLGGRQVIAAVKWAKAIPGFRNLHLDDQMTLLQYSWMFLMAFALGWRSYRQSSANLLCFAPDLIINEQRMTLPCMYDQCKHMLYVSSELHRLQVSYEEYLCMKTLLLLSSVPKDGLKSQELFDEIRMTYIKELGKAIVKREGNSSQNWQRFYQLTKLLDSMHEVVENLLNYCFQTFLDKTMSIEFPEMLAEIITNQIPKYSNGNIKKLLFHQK
Protocol: Compound (I) wherein R represents furan-2-yl undergoes highly efficient hepatic metabolism to yield the 17-β carboxylic acid (X) as the sole major metabolite in rat and human in vitro systems. […] Pharmacological activity was assessed in a functional in vitro assay of glucocorticoid agonist activity which is generally predictive of anti-inflammatory or anti-allergic activity in vivo.

[8] = biological target: T2, glucocorticoid receptor (GR) (Homo sapiens, UniProt P04150); assay: Transrepression (NFκB): A549 cells with firefly luciferase NFκB reporter, TNFα stimulated; format: cell-based; settings: 0.5 ng/ml TNFα, read-out: Transrepression (NFκB) ED50
Excerpt: (§1) The glucocorticoid receptor (GR) can function in at least two distinct mechanisms, by upregulating gene expression through the direct binding of GR to specific sequences in gene promotors, and by downregulating gene expression that is being driven by other transcription factors (such as NFκB or AP-1) through their direct interaction with GR.
(§2) The first cell line contains the firefly luciferase reporter gene under the control of a synthetic promoter that specifically responds to activation of the transcription factor NFκB when stimulated with TNFα. The second cell line contains the renilla luciferase reporter gene under the control of a synthetic promotor that comprises 3 copies of the consensus glucocorticoid response element, and which responds to direct stimulation by glucocorticoids. Simultaneous measurement of transactivation and transrepression was conducted by mixing the two cell lines in a 1:1 ratio in 96 well plate (40,000 cells per well) and growing overnight at 37° C. Test compounds were dissolved in DMSO, and added to the cells at a final DMSO concentration of 0.7%. After incubation for 1 h 0.5 ng/ml TNFα (R&D Systems) was added and after a further 15 hours at 37° C., the levels of firefly and renilla luciferase were measured using the Packard Firelite kit following the manufacturers' directions. Dose response curves were constructed from which EC50 values were determined.

[9] = biological target: T2, glucocorticoid receptor (GR); assay: Transactivation (GR): A549 cells with renilla luciferase reporter under glucocorticoid response elements; format: cell-based; settings: renilla luciferase GRE reporter, read-out: Transactivation (GR) ED50
Excerpt: as §1, §2

[10] = Pig 1, intra-tracheal dry powder 1 mg
[11] = Pig 2, intra-tracheal dry powder 1 mg
[12] = 5% Tyloxapol, aqueous with cosolvent or surfactant or cyclodextrin, 5% Tyloxapol, process performed at 60-70° C., read-out: solubility
[13] = 5% Tyloxapol, aqueous with cosolvent or surfactant or cyclodextrin, 5% Tyloxapol, process performed at room temperature, read-out: solubility
[14] = water, aqueous with cosolvent or surfactant or cyclodextrin, in water, Triton X-100 2% w/w, read-out: Solubility
[15] = water, aqueous with cosolvent or surfactant or cyclodextrin, in water, Tyloxapol 2% w/w, read-out: Solubility
[16] = water, aqueous with cosolvent or surfactant or cyclodextrin, in water, Tyloxapol 5% w/w and PEG200 10% w/w, read-out: Solubility
[17] = water, aqueous with cosolvent or surfactant or cyclodextrin, in water, Tyloxapol 5% w/w, read-out: Solubility
[18] = water, in water, no surfactant, read-out: Solubility

time after dosing up to which quantifiable in plasma [1]	Cmax [1, 10] [ng/mL]	Cmax [1, 11] [ng/mL]	AUC(0-inf) [1, 10] [ng·h/mL]	AUC(0-inf) [1, 11] [ng·h/mL]	pharmacokinetic parameters, compound (I) versus fluticasone propionate [3]	clearance [4] [mL/min/kg]	reduction of thymus weight [5] [%]	solubility [6, 12] [µg/mL]	solubility [6, 13] [µg/mL]	solubility [6, 14] [µg/mL]	solubility [6, 15] [µg/mL]	solubility [6, 16] [µg/mL]	solubility [6, 17] [µg/mL]	solubility [6, 18] [µg/mL]	Compound	also measured
up to 2 hours	0.117	0.081	0.254	0.221	the same	47.3	67	344	233	266	95	836	307	< 1	C[C@@H]1C[C@H]2[C@@H]3C[C@H](F)C4=CC(=O)C=C[C@]4(C)[C@@]3(F)[C@@H](O)C[C@]2(C)[C@@]1(OC(=O)c1ccco1)C(=O)SCF [Compound of Formula (I), 6α, 9α-difluoro-17α-[(2-furanylcarbonyl)oxy]-11β-hydroxy-16α-methyl-3-oxo-androsta-1,4-diene-17β-carbothioic acid S-fluoromethyl ester]	systemic exposure compared to fluticasone propionate ([1]; anaesthetised pigs, dry powder delivery to the lungs): markedly reduced systemic exposure; also recorded: significantly lower exposure; inhibition of lung eosinophilia [2]: 69%; bioavailability ([4]; oral, 0.1 mg/kg, oral 0.1 mg/kg and IV 0.1 mg/kg): 0.9%; solubility ([6]; water, aqueous with cosolvent or surfactant or cyclodextrin, in water, Triton X-100 0.5% w/w, read-out: Solubility): 18 µg/mL; solubility ([6]; water, aqueous with cosolvent or surfactant or cyclodextrin, in water, Triton X-100 5% w/w and PEG200 10% w/w, read-out: Solubility): 840 µg/mL; solubility ([6]; water, aqueous with cosolvent or surfactant or cyclodextrin, in water, Triton X-100 5% w/w, read-out: Solubility): 549 µg/mL; solubility ([6]; water, aqueous with cosolvent or surfactant or cyclodextrin, in water, Triton X-305 5% w/w, read-out: Solubility): 204 µg/mL; solubility ([6]; water, aqueous with cosolvent or surfactant or cyclodextrin, in water, Tyloxapol 5% w/w and Dextrose 4% w/w, read-out: Solubility): 526 µg/mL; solubility ([6]; water, aqueous with cosolvent or surfactant or cyclodextrin, in water, Tyloxapol 5% w/w and Propylene glycol 10% w/w, read-out: Solubility): 422 µg/mL; solubility ([6]; water, aqueous with cosolvent or surfactant or cyclodextrin, in water, Tyloxapol 5% w/w, no co-solvating agent, read-out: Solubility): 344 µg/mL; solubility ([6]; water, aqueous with cosolvent or surfactant or cyclodextrin, in water, Tyloxapol 6% w/w, read-out: Solubility): 346 µg/mL; solubility ([6]; water, aqueous with cosolvent or surfactant or cyclodextrin, in water, Tyloxapol 7.5% w/w, read-out: Solubility): 576 µg/mL; solubility ([6]; water, aqueous with cosolvent or surfactant or cyclodextrin, in water, Tyloxapol 10% w/w, read-out: Solubility): 585 µg/mL
up to 8 hours	0.277	0.218	0.455	0.495	the same	45.2	78	133 (≈ 266 µM)	87 (≈ 174 µM)	69 (≈ 138 µM)	41 (≈ 81.9 µM)	207 (≈ 414 µM)	133 (≈ 266 µM)	< 1	CCC(=O)O[C@]1(C(=O)SCF)[C@H](C)C[C@H]2[C@@H]3C[C@H](F)C4=CC(=O)C=C[C@]4(C)[C@@]3(F)[C@@H](O)C[C@@]21C [Fluticasone propionate, 6α, 9α-Difluoro-17α-(1-oxopropoxy)-11β-hydroxy-16α-methyl-3-oxo-androsta-1,4-diene-17-0-carbothioic acid S-fluoromethyl ester, reference compound]	solubility ([6]; in water, Labrasol 10% w/w): None detected; solubility ([6]; in water, Triton X-45 5% w/w): None detected; solubility ([6]; water, aqueous with cosolvent or surfactant or cyclodextrin, in water, Sodium chenodesoxycholate 5% w/w, read-out: Solubility): 5.9 µg/mL (≈ 11.8 µM); solubility ([6]; water, aqueous with cosolvent or surfactant or cyclodextrin, in water, Sodium cholate 2% w/w, read-out: Solubility): 11 µg/mL (≈ 22 µM); solubility ([6]; water, aqueous with cosolvent or surfactant or cyclodextrin, in water, Sodium cholate 20% w/w, read-out: Solubility): 140 µg/mL (≈ 280 µM); solubility ([6]; water, aqueous with cosolvent or surfactant or cyclodextrin, in water, Tyloxapol 5% w/w and Phospatidyl choline 1% w/w, read-out: Solubility): 197 µg/mL (≈ 394 µM)
–	–	–	–	–	–	–	–	–	–	–	–	–	–	–	C[C@@H]1CC2C3C[C@H](F)C4=CC(=O)C=C[C@]4(C)[C@@]3(F)[C@@H](O)C[C@]2(C)[C@@]1(OC(=O)c1ccco1)C(=O)O (stereo partly shown) [Metabolite (X)]	fold less active than the parent compound [7]: > 1000 fold; EC50 [8]: > 1000 nM; EC50 [9]: < 250 nM
